Measurements from ChEMBL document CHEMBL4020729, “Synthesis and evaluation of anti-plasmodial and cytotoxic activities of epoxyazadiradione derivatives” (Eur J Med Chem, 2017).

Legend:
Assay type in all cases: functional, cell-based
Plasmodium falciparum = assay: Anti-plasmodial activity against chloroquine-sensitive Plasmodium falciparum 3D7 infected in human erythrocytes after 50 hrs by SYBR green dye based fluorescence assay; settings: 3D7, 50 h
SiHa = assay: Antiproliferative activity against human SiHa cells after 48 hrs by SRB assay
PANC-1 = assay: Antiproliferative activity against human PANC1 cells after 48 hrs by SRB assay; settings: PANC-1, 48 h
MDA-MB-231 = assay: Antiproliferative activity against human MDA-MB-231 cells after 48 hrs by SRB assay; settings: MDA-MB-231, 48 h
IMR-32 = assay: Antiproliferative activity against human IMR32 cells after 48 hrs by SRB assay; settings: IMR-32, 48 h

Compound | IC50 (Plasmodium falciparum) | IC50 (SiHa) | IC50 (PANC-1) | IC50 (MDA-MB-231) | IC50 (IMR-32)
CC1(C)C(=O)C2OC2[C@]2(C)[C@H]3CC[C@@]4(C)[C@H](c5ccoc5)C(=O)[C@H]5O[C@]54[C@]3(C)C(=O)C[C@@H]12 (some centres undefined) | 131 µM | > 100 µM | > 100 µM | > 100 µM | > 100 µM
CC(=O)O[C@@H]1C[C@H]2C(C)(C)C(O)CC[C@]2(C)[C@H]2CC[C@@]3(C)[C@H](c4ccoc4)C(O)[C@H]4O[C@]43[C@@]21C (some centres undefined) | 21.4 µM | > 100 µM | > 100 µM | 15.9 µM | > 100 µM
COc1cccc(C(=O)O/N=C2/[C@H]3O[C@]34[C@@]3(C)[C@H](CC[C@@]4(C)[C@@H]2c2ccoc2)[C@@]2(C)C=CC(=O)C(C)(C)[C@@H]2C[C@H]3OC(C)=O)c1 | 8 µM | > 100 µM | > 100 µM | > 100 µM | > 100 µM
COc1cccc2c1C(=O)c1c(O)c3c(c(O)c1C2=O)C[C@@](O)(C(=O)CO)C[C@@H]3O[C@H]1C[C@H](N)[C@H](O)[C@H](C)O1 [DOXORUBICIN] |  | 1.9 µM | 3.2 µM | 1.8 µM | 3.2 µM
CC1(C)C(=O)C=C[C@]2(C)[C@H]3CC[C@@]4(C)[C@H](c5ccoc5)/C(=N\O)[C@H]5O[C@]54[C@]3(C)[C@H](O)C[C@@H]12 | 20 µM | > 100 µM | > 100 µM | > 100 µM | > 100 µM
CC(=O)O[C@@H]1C[C@H]2C(C)(C)C(=O)C=C[C@]2(C)[C@H]2CC[C@@]3(C)[C@H](c4ccoc4)/C(=N\OC(=O)c4cc(Br)ccc4[N+](=O)[O-])[C@H]4O[C@]43[C@@]21C | 4.1 µM | > 100 µM | > 100 µM | > 100 µM | > 100 µM
CC(=O)O[C@@H]1C[C@H]2C(C)(C)C(=O)C(O)C(O)[C@]2(C)[C@H]2CC[C@@]3(C)[C@H](c4ccoc4)C(=O)[C@H]4O[C@]43[C@@]21C (some centres undefined) | 52.5 µM | > 100 µM | > 100 µM | 29.9 µM | > 100 µM
CC(=O)O[C@@H]1C[C@H]2C(C)(C)C(=O)C=C[C@]2(C)[C@H]2CC[C@@]3(C)[C@H](c4ccoc4)/C(=N\OC(=O)c4ccc(Br)cc4)[C@H]4O[C@]43[C@@]21C | 9.4 µM | > 100 µM | > 100 µM | > 100 µM | > 100 µM
CC(=O)O[C@@H]1C[C@H]2C(C)(C)C(=O)CC[C@]2(C)[C@H]2CC[C@@]3(C)[C@H](c4ccoc4)C(=O)[C@H]4O[C@]43[C@@]21C | 7.5 µM | > 100 µM | > 100 µM | 20.2 µM | > 100 µM
CC(=O)O[C@@H]1C[C@H]2C(C)(C)/C(=N/O)C=C[C@]2(C)[C@H]2CC[C@@]3(C)[C@H](c4ccoc4)/C(=N\O)[C@H]4O[C@]43[C@@]21C | 31.4 µM | > 100 µM | > 100 µM | 29.1 µM | > 100 µM
CC(=O)O[C@@H]1C[C@H]2C(C)(C)C(=O)C=C[C@]2(C)[C@H]2CC[C@@]3(C)[C@H](c4ccoc4)/C(=N\OCc4cn(-c5ccc(Cl)cc5)nn4)[C@H]4O[C@]43[C@@]21C | 2.9 µM | > 100 µM | > 100 µM | 21.3 µM | > 100 µM
CCC(=O)Nc1ccc(-n2cc(CO/N=C3/[C@H]4O[C@]45[C@@]4(C)[C@H](CC[C@@]5(C)[C@@H]3c3ccoc3)[C@@]3(C)C=CC(=O)C(C)(C)[C@@H]3C[C@H]4OC(C)=O)nn2)cc1 | 6.7 µM | > 100 µM | > 100 µM | > 100 µM | > 100 µM
CC(=O)O[C@@H]1C[C@H]2C(C)(C)C(=O)C=C[C@]2(C)[C@H]2CC[C@@]3(C)[C@H](c4ccoc4)C(O)[C@H]4O[C@]43[C@@]21C (some centres undefined) | 13.1 µM | > 100 µM | > 100 µM | 47.8 µM | > 100 µM
CC(=O)O[C@@H]1C[C@H]2C(C)(C)C(O)C=C[C@]2(C)[C@H]2CC[C@@]3(C)[C@H](c4ccoc4)C(O)[C@H]4O[C@]43[C@@]21C (some centres undefined) | 35.5 µM | > 100 µM | > 100 µM | > 100 µM | > 100 µM
CC(=O)O[C@@H]1C[C@H]2C(C)(C)C(=O)C3OC3[C@]2(C)[C@H]2CC[C@@]3(C)[C@H](c4ccoc4)C(=O)[C@H]4O[C@]43[C@@]21C (some centres undefined) | 15.5 µM | > 100 µM | > 100 µM | 23.2 µM | > 100 µM
CC(=O)O[C@@H]1C[C@H]2C(C)(C)C(=O)C=C[C@]2(C)[C@H]2CC[C@@]3(C)[C@H](c4ccoc4)/C(=N\OCc4cn(-c5cc(Cl)c(Cl)cc5Cl)nn4)[C@H]4O[C@]43[C@@]21C | 2.3 µM | > 100 µM | > 100 µM | > 100 µM | > 100 µM
COc1ccc(OC)c(/C=C/C(=O)O[C@@H]2C[C@H]3C(C)(C)C(=O)C=C[C@]3(C)[C@H]3CC[C@@]4(C)[C@H](c5ccoc5)C(=O)[C@H]5O[C@]54[C@@]32C)c1 | 8.8 µM | > 100 µM | > 100 µM | > 100 µM | > 100 µM
CC(=O)O/N=C1/[C@H]2O[C@]23[C@@]2(C)[C@H](CC[C@@]3(C)[C@@H]1c1ccoc1)[C@@]1(C)C=CC(=O)C(C)(C)[C@@H]1C[C@H]2OC(C)=O | 9.3 µM | > 100 µM | > 100 µM | > 100 µM | > 100 µM
CCC(=O)O/N=C1/[C@H]2O[C@]23[C@@]2(C)[C@H](CC[C@@]3(C)[C@@H]1c1ccoc1)[C@@]1(C)C=CC(=O)C(C)(C)[C@@H]1C[C@H]2OC(C)=O | 9.3 µM | > 100 µM | > 100 µM | > 100 µM | > 100 µM
C=CCCC(=O)O/N=C1/[C@H]2O[C@]23[C@@]2(C)[C@H](CC[C@@]3(C)[C@@H]1c1ccoc1)[C@@]1(C)C=CC(=O)C(C)(C)[C@@H]1C[C@H]2OC(C)=O | 5.8 µM | > 100 µM | > 100 µM | 55.8 µM | > 100 µM
CCCC(=O)O/N=C1/[C@H]2O[C@]23[C@@]2(C)[C@H](CC[C@@]3(C)[C@@H]1c1ccoc1)[C@@]1(C)C=CC(=O)C(C)(C)[C@@H]1C[C@H]2OC(C)=O | 9.3 µM | > 100 µM | > 100 µM | > 100 µM | > 100 µM
CCC(=O)O[C@@H]1C[C@H]2C(C)(C)C(=O)C=C[C@]2(C)[C@H]2CC[C@@]3(C)[C@H](c4ccoc4)C(=O)[C@H]4O[C@]43[C@@]21C | 7.1 µM |  |  |  | 
CC(=O)O[C@@H]1C[C@H]2C(C)(C)C(=O)C=C[C@]2(C)[C@H]2CC[C@@]3(C)[C@H](c4ccoc4)/C(=N\OCc4cn(-c5ccc(C)cc5)nn4)[C@H]4O[C@]43[C@@]21C | 4.2 µM | > 100 µM | > 100 µM | > 100 µM | > 100 µM
COc1ccc(C[C@@H](O)c2cc(OC)c(OC)c(OC)c2)cc1O [COMBRETASTATIN] |  | 2 µM | 3.5 µM | 2.3 µM | 2.4 µM
